ChEMBL document CHEMBL6177932 (J Med Chem, 2024)
Active and inactive are the calls of the source. The calls are words filed in the database; no cut-off is given here.

How the values were obtained:
Mus musculus [1] = experiment: Immunomodulatory activity in mouse 4T1 cells implanted BALB/c mouse assessed as reduction in Ccl5 gene expression at 1.5 to 5 mg/kg, ip administered daily for 18 days by RT-qPCR analysis; type: functional, organism-based; settings: dose 1.5-5 mg/kg, time 18.0 day
[2] = molecular target: T1, Vitamin D3 receptor (Mus musculus) (UniProt P48281); experiment: Agonist activity at VDR in mouse 4TO7 cells assessed as induction of Cyp24a1 gene at 0.1 to 10 uM measured after 24 hrs by RT-qPCR analysis; type: cell-based; settings: filed as agonist, dose 0.1-10 µM
T1 sequence (whole entry): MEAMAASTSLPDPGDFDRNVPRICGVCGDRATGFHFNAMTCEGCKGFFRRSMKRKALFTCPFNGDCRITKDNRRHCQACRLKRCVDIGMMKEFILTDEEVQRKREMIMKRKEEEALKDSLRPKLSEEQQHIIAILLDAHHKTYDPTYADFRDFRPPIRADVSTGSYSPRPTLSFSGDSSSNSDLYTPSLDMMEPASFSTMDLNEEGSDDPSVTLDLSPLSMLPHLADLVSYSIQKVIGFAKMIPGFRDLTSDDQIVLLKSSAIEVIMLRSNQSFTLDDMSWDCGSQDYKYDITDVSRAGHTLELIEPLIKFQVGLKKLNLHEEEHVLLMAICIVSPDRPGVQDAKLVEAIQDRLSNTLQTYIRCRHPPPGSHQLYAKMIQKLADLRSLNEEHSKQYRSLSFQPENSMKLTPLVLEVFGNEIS

Mus musculus [3] = experiment: Immunomodulatory activity in mouse 4T1 cells implanted BALB/c mouse assessed as reduction in M2 macrophage infiltration into tumors at 1.5 to 5 mg/kg, ip administered daily for 18 days by arginase 1 staining based immunofluorescence microscopy; type: functional, organism-based; settings: dose 1.5-5 mg/kg, time 18.0 day
4T1 = experiment: Inhibition of class 1 HDAC in mouse 4T1 cells assessed as induction of H3K27 acetylation at 10 uM measured after 6 hrs by Western blot analysis; type: cell-based
Mus musculus [4] = experiment: Immunomodulatory activity in mouse 4T1 cells implanted BALB/c mouse assessed as reduction in Cxcl10 gene expression at 1.5 to 5 mg/kg, ip administered daily for 18 days by RT-qPCR analysis; type: functional, organism-based; settings: dose 1.5-5 mg/kg, time 18.0 day
[5] = molecular target: Histone deacetylase 9 (Homo sapiens) (UniProt Q9UKV0); experiment: Inhibition of human HDAC9 at 100 uM using Boc-Lys(trifluoroacetyl)-AMC as substrate by fluorogenic assay
[6] = Toxicity in 4T1 cells implanted BALB/c mouse assessed as body weight loss at 1.5 to 5 mg/kg, ip administered daily for 18 days; type: organism-based; settings: in vivo, 432 h, dose 1.5-5 mg/kg, time 18 day
Mus musculus [7] = experiment: Immunomodulatory activity in mouse 4T1 cells implanted BALB/c mouse assessed as induction of Il1a gene expression at 1.5 to 5 mg/kg, ip administered daily for 18 days by RT-qPCR analysis; type: functional, organism-based; settings: dose 1.5-5 mg/kg, time 18.0 day
[8] = Toxicity in mouse B16-F10 cells implanted C57BL/6 mouse assessed as effect on body weight at 5 mg/kg, ip administered daily for 28 days; type: organism-based; settings: in vivo, time 28 day
Mus musculus [9] = experiment: Immunomodulatory activity in mouse 4T1 cells implanted BALB/c mouse assessed as reduction in Ccl20 gene expression at 1.5 to 5 mg/kg, ip administered daily for 18 days by RT-qPCR analysis; type: functional, organism-based; settings: dose 1.5-5 mg/kg, time 18.0 day
4TO7 = experiment: Inhibition of class 1 HDAC in mouse 4TO7 cells assessed as induction of H3K9 acetylation at 10 uM measured after 6 hrs by Western blot analysis; type: cell-based
[10] = molecular target: T2, Protein deacetylase HDAC6 (Mus musculus) (UniProt Q9Z2V5); experiment: Inhibition of HDAC6 in mouse B16-F10 cells assessed as induction of tubulin acetylation at 10 uM measured after 6 hrs by Western blot analysis; type: cell-based
T2 sequence (whole entry): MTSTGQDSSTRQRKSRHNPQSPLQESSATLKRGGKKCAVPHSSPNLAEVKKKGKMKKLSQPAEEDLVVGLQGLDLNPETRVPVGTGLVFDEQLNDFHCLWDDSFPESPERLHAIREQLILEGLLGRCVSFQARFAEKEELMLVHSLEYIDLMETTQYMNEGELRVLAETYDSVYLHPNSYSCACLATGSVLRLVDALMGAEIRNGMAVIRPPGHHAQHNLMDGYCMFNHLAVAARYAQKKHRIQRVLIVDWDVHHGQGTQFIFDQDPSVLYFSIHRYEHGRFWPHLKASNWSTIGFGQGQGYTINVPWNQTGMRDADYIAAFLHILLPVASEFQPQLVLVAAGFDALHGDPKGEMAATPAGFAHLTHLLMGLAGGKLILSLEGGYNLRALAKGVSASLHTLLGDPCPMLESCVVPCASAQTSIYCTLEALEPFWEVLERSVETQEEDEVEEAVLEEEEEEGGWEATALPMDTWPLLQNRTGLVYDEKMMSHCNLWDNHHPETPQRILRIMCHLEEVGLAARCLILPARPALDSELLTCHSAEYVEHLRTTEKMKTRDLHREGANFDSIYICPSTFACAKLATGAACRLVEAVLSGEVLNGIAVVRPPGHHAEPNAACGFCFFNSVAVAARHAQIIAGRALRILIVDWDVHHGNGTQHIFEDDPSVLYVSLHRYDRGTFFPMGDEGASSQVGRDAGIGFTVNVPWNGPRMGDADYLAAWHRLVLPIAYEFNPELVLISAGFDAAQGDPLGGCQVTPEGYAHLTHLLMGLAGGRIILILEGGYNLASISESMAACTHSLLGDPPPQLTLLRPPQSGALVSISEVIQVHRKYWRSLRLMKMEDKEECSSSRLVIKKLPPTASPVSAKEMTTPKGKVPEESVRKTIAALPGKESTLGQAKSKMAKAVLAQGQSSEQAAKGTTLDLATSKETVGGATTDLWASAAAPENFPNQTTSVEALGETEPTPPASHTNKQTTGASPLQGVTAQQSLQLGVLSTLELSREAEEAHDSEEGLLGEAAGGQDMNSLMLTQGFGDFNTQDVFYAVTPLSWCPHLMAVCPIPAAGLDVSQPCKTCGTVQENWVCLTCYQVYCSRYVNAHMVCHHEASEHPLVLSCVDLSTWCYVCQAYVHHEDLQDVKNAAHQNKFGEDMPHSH

[11] = molecular target: T1, Vitamin D3 receptor (Mus musculus); experiment: Agonist activity at VDR in mouse B16-F10 cells assessed as induction of Cyp24a1 gene at 1 to 10 uM measured after 24 hrs by RT-qPCR analysis; type: cell-based; settings: filed as agonist, dose 1-10 µM
Mus musculus [12] = experiment: Immunomodulatory activity in mouse 4T1 cells implanted BALB/c mouse assessed as reduction in Ccl2 gene expression at 1.5 to 5 mg/kg, ip administered daily for 18 days by RT-qPCR analysis; type: functional, organism-based; settings: dose 1.5-5 mg/kg, time 18.0 day
[13] = molecular target: T2, Protein deacetylase HDAC6 (Mus musculus); experiment: Inhibition of HDAC6 in mouse 4TO7 cells assessed as induction of tubulin acetylation at 10 uM measured after 6 hrs by Western blot analysis; type: cell-based
[14] = molecular target: T1, Vitamin D3 receptor (Mus musculus); experiment: Agonist activity at VDR in mouse 4T1 cells assessed as induction of Cyp24a1 gene at 0.1 to 10 uM measured after 24 hrs by RT-qPCR analysis; type: cell-based; settings: filed as agonist, dose 0.1-10 µM

Histone deacetylase 9 (Homo sapiens), sequence (Q9UKV0 whole entry): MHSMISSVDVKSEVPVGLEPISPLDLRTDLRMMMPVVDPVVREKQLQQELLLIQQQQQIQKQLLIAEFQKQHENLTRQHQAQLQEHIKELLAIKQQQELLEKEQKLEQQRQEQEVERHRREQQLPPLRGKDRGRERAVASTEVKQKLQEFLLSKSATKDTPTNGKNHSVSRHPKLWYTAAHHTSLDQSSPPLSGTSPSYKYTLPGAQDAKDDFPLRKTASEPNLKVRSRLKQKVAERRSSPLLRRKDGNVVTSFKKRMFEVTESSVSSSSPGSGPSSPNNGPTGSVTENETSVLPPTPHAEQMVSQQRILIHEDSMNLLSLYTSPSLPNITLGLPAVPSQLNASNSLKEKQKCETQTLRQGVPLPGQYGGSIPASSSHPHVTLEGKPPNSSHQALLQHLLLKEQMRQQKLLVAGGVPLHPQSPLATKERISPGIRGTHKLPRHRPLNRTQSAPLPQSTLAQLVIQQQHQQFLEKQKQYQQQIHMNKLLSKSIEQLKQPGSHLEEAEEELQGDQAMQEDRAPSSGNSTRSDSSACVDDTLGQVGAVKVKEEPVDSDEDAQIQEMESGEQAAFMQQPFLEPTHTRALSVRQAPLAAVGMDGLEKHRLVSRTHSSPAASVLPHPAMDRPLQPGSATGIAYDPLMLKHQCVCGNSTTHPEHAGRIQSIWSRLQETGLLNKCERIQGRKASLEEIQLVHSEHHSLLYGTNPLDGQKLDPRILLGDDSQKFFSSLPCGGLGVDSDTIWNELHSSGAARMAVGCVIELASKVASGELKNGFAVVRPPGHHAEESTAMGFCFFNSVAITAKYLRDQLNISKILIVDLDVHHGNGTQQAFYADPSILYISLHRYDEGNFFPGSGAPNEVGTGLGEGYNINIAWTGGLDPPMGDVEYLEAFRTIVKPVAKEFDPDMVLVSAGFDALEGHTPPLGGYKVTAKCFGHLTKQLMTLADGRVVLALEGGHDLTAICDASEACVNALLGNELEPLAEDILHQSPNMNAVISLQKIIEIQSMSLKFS

SMILES: CCC(CC)(c1ccc(C(=O)NCCCCC(=O)NO)cc1)c1ccc(OCC(O)C(C)(C)C)c(C)n1 (stereo unspecified)
- Activity (Mus musculus [1]): Active
- Activity [2]: Active
- Activity (Mus musculus [3]): Active; Compound Was Most Efficacious At Reducing The M2 Macrophages
- inhibition (4T1): Active
- Activity (Mus musculus [4]): Active
- inhibition [5]: Not active; No Or Very Limited Inhibition Was Observed
- Activity [6]: Non-toxic
- Activity (Mus musculus [7]): Active
- Activity [8]: Non-toxic
- Activity (Mus musculus [9]): Active
- inhibition (4TO7): Active; Induced Higher Levels Of Acetylation Than Saha
- inhibition [10]: Active; Acetylation Was Comparable Or Greater Than Saha
- Activity [11]: Active
- Activity (Mus musculus [12]): Active
- inhibition [13]: Active; Induced Higher Levels Of Acetylation Than Saha
- Activity [14]: Active
